Laboratory results published in ChEMBL document CHEMBL1146822, “Adenine derived inhibitors of the molecular chaperone HSP90-SAR explained through multiple X-ray structures” (Bioorg Med Chem Lett, 2004).

Test system: HCT-116
Assay: Cellular activity against human colon tumor cell line, HCT116
Type: functional

**Q.** How did the GI50 turn out when `C#CCCCn1c(Cc2cc(OC)c(OC)c(OC)c2Cl)nc2c(N)nc(F)nc21` was run?
**A.** 3.9 µM

**Q.** For `C#CCCCn1c(Cc2cc(OC)ccc2OC)nc2c(N)nc(F)nc21`, which GI50 is on record?
**A.** 3.3 µM

**Q.** `CCCCn1c(Cc2cc(OC)ccc2OC)nc2c(N)nc(F)nc21` was tested. Which GI50 did it give?
**A.** 3.4 µM
